Results: patent US20050222270A1, “Prolonged administration of NMDA antagonist drug and safener drug to create improved stable neural homeostasis” (priority 2004, published 2005)

Assays:
[1] = tested on: patients with CRPS-1 (RSD); test: Sustained ketamine infusion (with clonidine/magnesium) in patients with CRPS-1 (RSD) chronic neuropathic pain
Excerpt: One of the coinventors herein (Correll, a physician) was involved in those tests, in Australia, using ketamine “mono-therapy” (i.e., without also administering a safener drug, such as clonidine).
In response, the anesthesiologist began to administer clonidine, a standard and conventional treatment for controlling high blood pressure. […] The anesthesiologist then began researching the scientific, medical, and patent literature on the subject, and soon discovered prior work done by the third inventor (Olney, a neurology researcher who specializes in animal models) on the subject of safener drugs that can reduce or prevent the toxic side effects of NMDA blocker drugs such as ketamine.
A person had suffered for roughly 9 years from intractable chronic pain, diagnosed as CRPS-1 and/or RSD, in their right leg and foot. This pain apparently was related to circulatory problems in their right leg. […] The contents of that article are incorporated herein by reference.
They were treated with […] of MgSO4 (infused in 5% dextrose in water, or D5W) and 0.1 mg clonidine (oral tablet) prior to ketamine. […] A second magnesium infusion was performed at 24 hr.

depressed patients = details: single one-time dosage; cited from earlier work
[2] = tested on: patients with compulsive eating disorders (mainly anorexic); details: 2 to 9 infusions, 10-hour infusion period, 20 mg per hour; cited from earlier work
[3] = tested on: patient with intractable post-herpetic trigeminal neuralgia; test: Ketamine infusion with clonidine and MgSO4 in a patient with post-herpetic trigeminal neuralgia; assay type: in vivo, human
Excerpt: A person had suffered for about 1.5 years from intractable post-herpetic trigeminal neuralgia (commonly known as shingles).

Q: For `Clc1cccc(Cl)c1N=C1NCCN1` [clonidine], which “effect of adding clonidine to ketamine infusion on pain” value ([1]; patient in ketamine mono-therapy test, clonidine given for rising blood pressure) is on record?
A: substantial improvement in their pain reduction

Q: Which effect on depression (depressed patients) does the source give for `CNC1(c2ccccc2Cl)CCCCC1=O` (stereo not drawn) [ketamine] here?
A: transient relief of depression

Q: And the “patients with prolonged remission of compulsive thoughts about food, diet, and weight” value [2]?
A: Nine of the 15

Q: And the “pain status at last contact” value ([3]; Example 3, about 12 months after treatment, 48 hours ketamine infusion, clonidine started during first day, 2 x 2 g MgSO4)?
A: still largely abated

Q: What about the “time patient remained pain-free after ketamine treatment” value ([1]; Example 1, person, 9-year CRPS-1/RSD in right leg and foot) of the same compound?
A: roughly 18 months

Q: And the “pain status at last contact” value ([1]; Example 2, about 12 months after treatment)?
A: still pain-free

Q: What about the “time until CNS side effects (slurring of speech) resolved” value ([1]; Example 2, ketamine infusion increased to 20 mg/hr) of the same compound?
A: ≤ 24 h

Q: What about the “time of ketamine infusion until essentially complete relief from pain” value ([1]; Example 2, person, ketamine 10-20 mg/hr i.v. with clonidine 0.1 mg every 12 hours and MgSO4) of the same compound?
A: 2 to 3 days

Q: For `O=S(=O)([O-])[O-].[Mg+2]` [MgSO4, magnesium sulfate], which “effect of magnesium coadministered along with ketamine on pain” value ([3]; Example 3, 2 g MgSO4 prior to and 2 g later in ketamine infusion) is on record?
A: synergistic pain-reducing effect
